Source: US12508258B2, “Quinoline derivative for treating rheumatoid arthritis” (CHIA TAI TIANQING PHARMACEUTICAL GROUP CO., LTD., priority 2020, dated 2025)
Structures can show the parent of a compound that is named as a salt.

Assays:
[1] = test system: CIA rats; assay: CIA model rats, ankle joint histopathology (HE staining, lesion observation and scoring); assay type: in vivo; settings: SD CIA rats; for joint lesions (histopathology) compared to model group: intragastric, once daily five days on/two days off, two weeks, formula I dihydrochloride 20 and 10 mg/kg, dexamethasone sodium phosphate 0.05 mg/kg
Experimental: (§1) After adaptive feeding of 80 SPF male SD rats with the weight of 140±10 g for 5 days, 10 male SD rats were randomly selected as a normal control group, and the rest were subjected to collagen-induced arthritis model modeling. The specific methods are as follows.
(§2) A solution of the bovine type II collagen (CII) in acetic acid (containing 2.0 mg·mL^−1 bovine CII) and an equal volume of complete Freund's adjuvant (CFA) were completely mixed, and the mixture was fully emulsified. The emulsion was added dropwise to water without diffusing as the degree, and finally the emulsion containing 1.0 mg·mL^−1 bovine CII was prepared. 0.2 mL of the emulsion was taken and injected intradermally into the dorsal and the base of the tail at four points (two points on the dorsal and two points on the base of the tail) for the primary immunization (d0). After day 7 (d7) of primary immunization, the emulsion was injected again as described above to boost the immunization. Then the arthritis index (AI) was scored on day 14 (d14). The highest score of each rat was 16 points, and the arthritis induction was considered successful if there was at least 1 paw with AI score≥2.
The CIA rats successfully modeled were randomly divided into a drug medium-dose group, a drug low-dose group and a model group, with 10 rats in each group. The normal group and the model group were subjected to intragastric administration with 0.02 mL·g^−1 normal saline; the drug medium-dose group and the drug low-dose group were administered with the dihydrochloride salt of the compound of formula I at 20 mg/kg and 10 mg/kg, respectively, (the vehicle was normal saline). The positive drug group was subjected to intragastric administration with dexamethasone sodium phosphate with the dose of 0.05 mg/kg. The rats was administered once daily from Monday to Friday (i.e., consecutively five-day administration and then two-day interruption). The dosing period was two weeks.
After the animal blood collection was finished, ankle joints were fixed in 10% formalin. The ankle joints were subjected to decalcification by 10% acetic acid and then were subjected to routine paraffin embedding, slicing and HE staining. The slices were observed by pathology professionals, and then the damage degree of joint synovial tissue, joint bones and cartilage tissue was observed and scored for comparison.
Observation of lesions and scoring: 1. whether the joint synovial cells are proliferated or eroded (denatured, necrotic), and whether the inflammatory cells infiltrate or not; 2. whether the pannus is formed (composed of blood vessels and fibroblasts); 3. whether the bony erosion (joint bone and cartilage) or hyperplasia exists; 5. whether the joint cavity has stenosis, disappearance and other lesions. The observation indexes were classified into 3 grades according to the severity of the lesions, which were respectively recorded as: 1 point for slight, 2 points for moderate, and 3 points for severe. 0 points means substantially normal. All scores were accumulated to obtain a total score, and the average score (mean±SD) of each animal in each group was calculated, and the higher the score, the more severe the lesion.

[2] = test system: interleukin-1β (IL-1β); assay: CIA model rats, serum IL-1β by enzyme-linked immunosorbent assay; assay type: in vivo; settings: SD CIA rats; day 28; 20 and 10 mg/kg
Experimental: as §1
as §2, with “The highest score of each rat was 16 points, and the arthritis induction was considered successful if there was at least 1 paw with AI score≥2.” left out
(§3) After day 28 of the experiment, the blood was collected from the abdominal aorta of the rats in each group, and the serum was separated. The tumor necrosis factor-α (TNF-α) and the interleukin-1β (IL-1β) were detected by enzyme-linked immunosorbent assay, and the specific method was carried out according to the specifications of the kit. […]

[3] = test system: rheumatoid arthritis CIA model rats; assay: Rheumatoid arthritis CIA model, hind limb joint size monitoring (vernier caliper); assay type: in vivo; settings: Wistar CIA rats, anlotinib 10 mg/kg; for joint swelling degree (ankle width and thickness) compared to model group: dexamethasone 0.1 mg/kg, FIGS. 2 and 3; for width of the hind limb ankle joints vs. model group / thickness of the hind limb ankle joints vs. model group: dexamethasone 0.1 mg/kg oral gavage once daily; for width of the hind limb ankle joints vs. model group: FIG. 2; for thickness of the hind limb ankle joints vs. model group: FIG. 3
Experimental: (§4) 15 SPF healthy male rats from Wistar with the weight of 160-180 g and purchased from Shanghai Institute of Planned Parenthood Research, with Certificate No. 20180006022473 in an SPF feeding environment.
(§5) Modeling group: on day 1 of the experiment, the primary immunization was performed. The animals in the modeling group were anesthetized with isoflurane. Four points were taken to inject the modeling agent on both sides of the spinal cord skin at the base of the tail of the rats. A total of 0.2 mL of CII/CFA molding emulsion was injected intradermally. On day 8 of the experiment, the second immunization was performed, and the operations were the same as those on day 1 of the experiment. Blank control group: equal volume of normal saline was injected.
(§6) After grouping, oral gavage administration was started according to the grouping requirements, and the administration volume was 10 mL/kg. The administration was carried out once daily for 14 days (from day 1 to day 14). On day 15, the animals were dissected after collection of relevant experimental data.
During the experiment, the width and thickness of the hind limb ankle joints of the rats in each group were measured with a vernier caliper on day 1, day 4, day 8, day 11 and day 15.

[4] = Rheumatoid arthritis CIA model, weight monitoring; assay type: in vivo; settings: Wistar CIA rats, oral gavage once daily 14 days, dexamethasone 0.1 mg/kg, FIG. 1; for weight of the rats, regain after treatment: anlotinib 10 mg/kg
Experimental: as §4, §5, §6
During the experiment, the weight of the rats in each group was measured once daily from the day of grouping and administration (day 1) to day 15.

[5] = test system: rat rheumatoid arthritis model; assay: Rat rheumatoid arthritis CIA model, overall drug efficacy; assay type: in vivo; settings: Wistar CIA rats; anlotinib 10 mg/kg oral gavage once daily for 14 days
Experimental: as §4
15 rats were randomly divided into two groups according to the weight, blank control group (n=3) and modeling group (n=12).
as §5
The animals in the modeling group were divided into 3 groups according to the joint swelling degree and the joint scores: group-2 (n=4, model group), group-3 (n=4, positive control group), and group-4 (n=4, test drug group).
After grouping, oral gavage administration was started according to the grouping requirements, and the administration volume was 10 mL/kg. The administration was carried out once daily for 14 days (from day 1 to day 14). […]

[6] = test system: human rheumatoid arthritis synovial cells; assay: MTT assay for the inhibition of human rheumatoid arthritis synovial cells; assay type: cell-based
Experimental: An MTT assay for the inhibition of human rheumatoid arthritis synovial cells using the dihydrochloride salt of the compound of formula I as the test drug: the trypsinized cell suspension was seeded in a 96-well plate at a volume of 100 μL per well, with 1×10^4 cells per well. The edges of the plate were wiped with sterile PBS. The plate was placed in a cell incubator and incubated at 37° C. with 5% CO2. After 24 h of incubation, the original culture solution in the wells was aspirated. Then 100 μL of culture solution with gradient concentration of drug was added to each well, and 6 concentrations were set, namely, 0 μM, 0.5 μM, 1 μM, 2 μM, 5 μM and 10 μM, respectively. The plate was placed in the incubator and incubated at 37° C. with 5% CO2. After 24 h and 48 h after dosing, 20 μL of MTS was added to each well. The plate was incubated at 37° C. for 1.5 h. The absorbance of each well at a wavelength of 540 nm was measured by a microplate reader, and the inhibition rate of cells in each group was calculated.
The calculation formula is as follows: cell inhibition rate/%=(1−[…])×100%

[7] = test system: rheumatoid arthritis CIA model rats; assay: Rheumatoid arthritis CIA model, joints photographing; assay type: in vivo; settings: Wistar CIA rats; anlotinib 10 mg/kg, dexamethasone 0.1 mg/kg; FIGS. 6 and 7
Experimental: as §4, §5, §6
One rat in each group was selected, and the hind limb ankle joints thereof were photographed on day 4, day 8, day 11 and day 15.

[8] = test system: rheumatoid arthritis CIA model rats; assay: Rheumatoid arthritis CIA model, hind limb joint lesion scoring; assay type: in vivo; settings: Wistar CIA rats, anlotinib 10 mg/kg, dexamethasone 0.1 mg/kg oral gavage once daily, FIG. 4
Experimental: as §4, §5
After modeling was completed, the animals were normally observed and housed. After the hind limb joints of the animals were diseased, the animals were grouped according to the joint swelling degree and the joint score, wherein the scoring criteria were as follows: • clinical diagnostic scoring criteria for joint soft tissue swelling and joint mobility:
as §6
During the experiment, hind limb ankle joints of the rats in each group were scored for joint soft tissue swelling and joint mobility on day 1, day 4, day 8, day 11 and day 15.

[9] = test system: rheumatoid arthritis CIA model rats; assay: Rheumatoid arthritis CIA model, hind limb joint weight determination; assay type: in vivo; settings: day 8; Wistar CIA rats; anlotinib 10 mg/kg, dexamethasone 0.1 mg/kg oral gavage once daily; FIG. 5
Experimental: as §4, §5, §6
On day 8, two rats in each group were dissected, and the weight of the hind limb joints was measured. The remaining animals were subjected to normal experiments according to the grouping schedule. On day 15, the remaining animals in each group were dissected, and the weight of the hind limb joints was measured.

[10] = test system: tumor necrosis factor-α (TNF-α); assay: CIA model rats, serum TNF-α by enzyme-linked immunosorbent assay; assay type: in vivo; settings: SD CIA rats; day 28; 20 and 10 mg/kg
Experimental: as §1
as §2, with “The highest score of each rat was 16 points, and the arthritis induction was considered successful if there was at least 1 paw with AI score≥2.” left out
as §3

[11] = test system: CIA rats; assay: CIA model rats, determination of the rat paw swelling degree; assay type: in vivo; settings: SD CIA rats; right hind paw thickness; 20 and 10 mg/kg
Experimental: as §1
as §2, with “The highest score of each rat was 16 points, and the arthritis induction was considered successful if there was at least 1 paw with AI score≥2.” left out
Determination of the rat paw swelling degree: before the primary immunization (d0), every 7 d (d7, d14) after the primary immunization and every 4 d after treatment, the thickness of the right hind paw of the rats was measured with a vernier caliper at the same position. […]

Row | Structure (SMILES) | joint lesions (histopathology) compared to model group [1] | joint swelling degree (ankle width and thickness) compared to model group [3] | thickness of the hind limb ankle joints vs. model group ([3]; day 8) | width of the hind limb ankle joints vs. model group ([3]; day 15) | weight of the rats, regain after treatment [4] | joint swelling degree on photographs compared to model group [7] | lesion scores of the hind limb ankle joints vs. model group ([8]; day 8) | lesion scores of the hind limb ankle joints vs. model group ([8]; day 11) | lesion scores of the hind limb ankle joints vs. model group ([8]; day 15) | weight of the hind limb joints vs. model group [9] | also measured
1 | COc1cc2c(Oc3ccc4[nH]c(C)cc4c3F)ccnc2cc1OCC1(N)CC1 [Anlotinib hydrochloride, 1-[[[4-(4-fluoro-2-methyl-1H-indol-5-yl)oxy-6-methoxyquinolin-7-yl]oxy]methyl]cyclopropylamine] | improved in different degrees | improved to a certain extent | lower than that of the model group | lower than that of the model group | began to regain from day 7 | improved to a certain extent | lower than those of the model group | lower than those of the model group | lower than those of the model group | lower than that of the model group | dose dependence of joint improvement (histopathology) ([1]; 20 mg/kg and 10 mg/kg): improved in a dose-dependent manner; joint cavity stenosis compared with model group ([1]; 20 and 10 mg/kg): significantly improved; joint inflammatory infiltration compared with model group ([1]; 20 and 10 mg/kg): significantly reduced; synovium hyperplasia compared with model group ([1]; 20 and 10 mg/kg): significantly relieved; content of IL-1β in the serum of rats compared with model group [2]: could reduce; width of the hind limb ankle joints vs. model group ([3]; day 4): lower than that of the model group; thickness of the hind limb ankle joints vs. model group ([3]; day 4): lower than that of the model group; width of the hind limb ankle joints vs. model group ([3]; day 8): lower than that of the model group; drug efficacy on the rat rheumatoid arthritis model (conclusion) [5]: significant drug efficacy; inhibition of proliferation of human rheumatoid arthritis synovial cells ([6]; 0.5, 1, 2, 5 and 10 μM compared with drug-free group at 0 μM, 24 h and 48 h after dosing): significantly inhibit the proliferation of human rheumatoid arthritis synovial cells; concentration dependence of the inhibitory effect on synovial cell proliferation ([6]; 0.5-10 μM): enhanced along with the increase of the concentration of the drug; lesion scores of the hind limb ankle joints vs. model group ([8]; day 4): lower than those of the model group; content of TNF-α in the serum of rats compared with model group [10]: could reduce; paw swelling degree compared with model group [11]: significantly reduced
2 | C[C@@H]1C[C@H]2[C@@H]3CCC4=CC(=O)C=C[C@]4(C)[C@@]3(F)[C@@H](O)C[C@]2(C)[C@@]1(O)C(=O)COP(=O)(O)O [dexamethasone sodium phosphate, reference compound] | significantly reduced | improved to a certain extent | lower than that of the model group | lower than that of the model group | began to regain from day 7 | improved to a certain extent | lower than those of the model group | lower than those of the model group | lower than those of the model group | lower than that of the model group | weight of the rats, early stage (side effect) [4]: significant weight loss at the early stage
